Our source for the IC50 values is patent US20230024302A1, “2,3,5-TRISUBSTITUTED PYRAZOLO[1,5-A]PYRIMIDINE COMPOUNDS” (Arcus Biosciences, Inc., priority 2019, published 2023).

The structures appear in SMILES notation. Like-named read-outs stand apart in the source and are kept apart here.

One assay deals with T1, PI3Kγ (p120γ) (Homo sapiens, UniProt P48736).
T1 construct: purchased Promega V1761
Nature of the assay: Inhibition of PI3K kinase activity (ADP Glo), PI3Kγ. To be noted: read-out: biochemical potency (PI3Kγ IC50). In a few lines:
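Recombinant p120γ (8 nM, 2× stock) was preincubated with compound for 1 h at rt in HEPES pH 7.4, NaCl, MgCl2 and 0.05% BSA. Reaction was started with PIP2 (0.1 mg/ml, 2×) and ATP (50 μM, 2×) and ran 60 min at rt. ADP formed was read by ADP-Glo luminescence, and IC50 came from a 4-parameter fit.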
(ADP-Glo first removes unused ATP, then detects ADP through luciferase.)

A further assay has as its target T2, PI3Kγ (Homo sapiens, UniProt P48736).
T2 construct: host or cells: THP-1
Nature of the assay: PI3Kγ cellular assay in THP-1 cells (AKT pS473 AlphaLISA). Type of assay: cell-based. The gist of the method:
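Serum-starved THP-1 cells (1.8×10^5/well, serum-free DMEM) treated with compounds from 4 nM to 30 μM in 2% DMSO, then stimulated and lysed.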
On the technique in general: Bead proximity is the source of the signal in Alpha formats.

Where [1] appears, read: Table 1, rhMCP-1 stimulated AKT pS473, read-out: cellular potency (PI3Kγ IC50).
Setting [2] is: Table 2, rhMCP-1 stimulated AKT pS473, read-out: cellular potency (PI3Kγ IC50).
Where [3] appears, read: AKT pS473, read-out: cellular potency (PI3Kγ IC50).
[4] abbreviates: Table 6, rhMCP-1 stimulated AKT pS473, read-out: cellular potency (PI3Kγ IC50).

T1 sequence (P48736 whole entry): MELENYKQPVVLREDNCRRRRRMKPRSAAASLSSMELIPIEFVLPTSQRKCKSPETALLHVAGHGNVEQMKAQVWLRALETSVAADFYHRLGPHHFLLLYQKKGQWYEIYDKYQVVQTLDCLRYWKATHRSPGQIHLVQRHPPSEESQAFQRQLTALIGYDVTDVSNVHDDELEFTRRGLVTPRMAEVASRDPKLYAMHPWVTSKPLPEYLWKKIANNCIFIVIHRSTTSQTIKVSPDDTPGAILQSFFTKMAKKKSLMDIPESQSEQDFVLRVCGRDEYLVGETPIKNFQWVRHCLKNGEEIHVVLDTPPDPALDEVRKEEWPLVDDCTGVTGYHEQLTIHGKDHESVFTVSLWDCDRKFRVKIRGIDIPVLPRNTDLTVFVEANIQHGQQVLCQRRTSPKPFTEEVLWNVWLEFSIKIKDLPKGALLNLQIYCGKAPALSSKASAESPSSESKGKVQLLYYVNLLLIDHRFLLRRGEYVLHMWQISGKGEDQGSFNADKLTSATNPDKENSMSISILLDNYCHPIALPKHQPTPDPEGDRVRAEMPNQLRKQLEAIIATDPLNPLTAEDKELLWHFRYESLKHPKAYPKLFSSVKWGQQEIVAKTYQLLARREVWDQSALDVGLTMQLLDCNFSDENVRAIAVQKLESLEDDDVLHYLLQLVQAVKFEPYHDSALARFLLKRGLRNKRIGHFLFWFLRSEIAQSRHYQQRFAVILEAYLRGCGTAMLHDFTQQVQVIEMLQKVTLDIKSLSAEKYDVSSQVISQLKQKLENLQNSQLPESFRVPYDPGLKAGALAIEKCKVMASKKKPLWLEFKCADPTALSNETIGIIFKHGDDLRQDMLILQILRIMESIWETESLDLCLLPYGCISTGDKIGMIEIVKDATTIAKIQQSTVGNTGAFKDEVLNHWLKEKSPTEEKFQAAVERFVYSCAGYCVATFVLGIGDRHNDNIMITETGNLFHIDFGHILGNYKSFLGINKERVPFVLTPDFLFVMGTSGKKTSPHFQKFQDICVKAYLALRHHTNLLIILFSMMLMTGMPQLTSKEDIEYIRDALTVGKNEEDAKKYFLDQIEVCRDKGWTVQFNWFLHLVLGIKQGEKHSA
T2 sequence (P48736 whole entry): as above

The IC50 is the concentration that gives 50% inhibition. For `C[C@@H](C1CC1)N1Cc2cc(-c3ccn4nc(N)c(C(=O)N[C@H]5CC[C@@](C)(O)CC5)c4n3)cc(OC(F)F)c2C1=O` [Example 160, 2-Amino-5-{2-[(1S)-1-cyclopropylethyl]-7-(difluoromethoxy)-1-oxo-2,3-dihydro-1H-isoindol-5-yl}-N-[cis-4-hydroxy-4-methylcyclohexyl]pyrazolo[1,5-a]pyrimidine-3-carboxamide], the half-maximal inhibitory concentration (IC50) was below 100 nM on PI3Kγ (p120γ) (Table 1, p120γ) and below 100 nM at PI3Kγ (setting [1]).

`Cc1cc(-c2ccn3nc(N)c(C(=O)N[C@@H](C)c4cnn(C)c4)c3n2)cc2c1C(=O)N([C@@H](C)C1CC1)C2` [Example 235]: the IC50 is below 100 nM at PI3Kγ (p120γ) (Table 2, p120γ) and 100 to 1000 nM at PI3Kγ (setting [2]).

As for `C[C@@H](C1CC1)N1Cc2cc(-c3ccn4nc(N)c(C(=O)Nc5ccccn5)c4n3)cc(NS(C)(=O)=O)c2C1=O` [Example 396], the IC50 on PI3Kγ (p120γ) was below 100 nM; at PI3Kγ (setting [3]), 100 to 1000 nM.

In the case of `C[C@@H](C1CC1)N1Cc2cc(-c3ccn4nc(N)c(C(=O)NC5CC5)c4n3)cc(NS(=O)(=O)N3CCOCC3)c2C1=O` [Example 409], the IC50 at PI3Kγ (p120γ) (Table 6, p120γ) was below 100 nM; at PI3Kγ (setting [4]) it was 100 to 1000 nM.

In the case of `CCS(=O)(=O)Nc1cc(-c2ccn3nc(N)c(C(=O)N[C@H]4C[C@](C)(O)C4)c3n2)cc2c1C(=O)N([C@@H](C)C1CC1)C2` [Example 111, 2-Amino-5-{2-[(1S)-1-cyclopropylethyl]-7-ethanesulfonamido-1-oxo-2,3-dihydro-1H-isoindol-5-yl}-N-[trans-3-hydroxy-3-methylcyclobutyl]pyrazolo[1,5-a]pyrimidine-3-carboxamide], the half-inhibitory concentration (IC50) on PI3Kγ (p120γ) (Table 1, p120γ) is below 100 nM; at PI3Kγ (setting [1]) it was below 100 nM.

In the case of `Cc1cc(-c2ccn3nc(N)c(C(=O)NC4CC4)c3n2)cc2c1C(=O)N([C@H](CO)C1CC1)C2` [Example 310], the half-inhibitory concentration (IC50) at PI3Kγ (p120γ) (Table 2, p120γ) was below 100 nM; at PI3Kγ (setting [2]), 100 to 1000 nM.

With `C[C@H](N1Cc2cc(-c3ccn4nc(N)c(C(=O)N[C@H]5C[C@H](O)C5)c4n3)cc(NS(C)(=O)=O)c2C1=O)C(F)(F)F` [Example 121, 2-Amino-5-{7-methanesulfonamido-1-oxo-2-[(2S)-1,1,1-trifluoropropan-2-yl]-2,3-dihydro-1H-isoindol-5-yl}-N-[trans-3-hydroxycyclobutyl]pyrazolo[1,5-a]pyrimidine-3-carboxamide], the concentration for half-maximal inhibition (IC50) is below 100 nM on PI3Kγ (p120γ) (Table 1, p120γ) and below 100 nM at PI3Kγ (setting [1]).

With `CNS(=O)(=O)c1cc(-c2ccn3nc(N)c(C(=O)Nc4cnn(C)c4)c3n2)cc2c1C(=O)N([C@@H](C)C1CC1)C2` [Example 140, 2-Amino-5-{2-[(1S)-1-cyclopropylethyl]-7-(methylsulfamoyl)-1-oxo-2,3-dihydro-1H-isoindol-5-yl}-N-(1-methyl-1H-pyrazol-4-yl)pyrazolo[1,5-a]pyrimidine-3-carboxamide], the IC50 on PI3Kγ (p120γ) (Table 1, p120γ) was below 100 nM; at PI3Kγ (setting [1]) it was below 100 nM.

For the compound `CC(CO)NC(=O)c1c(N)nn2ccc(-c3cc(F)c4c(c3)CN([C@@H](C)C3CC3)C4=O)nc12` (stereo partly shown) [Example 369], the 50% inhibitory concentration (IC50) is below 100 nM on PI3Kγ (p120γ) and 100 to 1000 nM on PI3Kγ (setting [3]).

As to `C[C@@H](C1CC1)N1Cc2cc(-c3ccn4nc(N)c(C(=O)Nc5ccc(CC(F)(F)F)nc5)c4n3)cc(C(F)(F)F)c2C1=O` [Example 354], the IC50 at PI3Kγ (p120γ) (Table 3, p120γ) is below 100 nM; at PI3Kγ (Table 3, rhMCP-1 stimulated AKT pS473, read-out: cellular potency (PI3Kγ IC50)), 100 to 1000 nM.

Consider `C[C@@H](C1CC1)N1Cc2cc(-c3ccn4nc(N)c(C(=O)N[C@H]5CCC[C@@H](O)C5)c4n3)cc(OC(F)(F)F)c2C1=O` [Example 29, 2-Amino-5-{2-[(1S)-1-cyclopropylethyl]-1-oxo-7-(trifluoromethoxy)-2,3-dihydro-1H-isoindol-5-yl}-N-[(1S,3R)-3-hydroxycyclohexyl]pyrazolo[1,5-a]pyrimidine-3-carboxamide], for which the IC50 on PI3Kγ (p120γ) (Table 1, p120γ) is below 100 nM; at PI3Kγ (setting [1]) it was below 100 nM.

As for `C[C@@H](C1CC1)N1Cc2cc(-c3ccn4nc(N)c(C(=O)NC5CC5)c4n3)cc(N3CC(F)(F)C3)c2C1=O` [Example 436], the 50% inhibitory concentration (IC50) on PI3Kγ (p120γ) (Table 6, p120γ) was below 100 nM; at PI3Kγ (setting [4]), 100 to 1000 nM.

Consider `C[C@@H](C1CC1)N1Cc2cc(-c3ccn4nc(N)c(C(=O)N[C@H]5CCNC5=O)c4n3)cc(OC(F)(F)F)c2C1=O` [Example 32, 2-Amino-5-{2-[(1S)-1-cyclopropylethyl]-1-oxo-7-(trifluoromethoxy)-2,3-dihydro-1H-isoindol-5-yl}-N-[(3S)-2-oxopyrrolidin-3-yl]pyrazolo[1,5-a]pyrimidine-3-carboxamide], for which the IC50 is below 100 nM on PI3Kγ (p120γ) (Table 1, p120γ) and below 100 nM at PI3Kγ (setting [1]).

Consider `Cc1cc(-c2ccn3nc(N)c(C(=O)N[C@H]4CC[C@H](N)CC4)c3n2)cc2c1C(=O)N([C@@H](C)C1CC1)C2` [Example 184], for which the IC50 was below 100 nM on PI3Kγ (p120γ) (Table 2, p120γ) and 100 to 1000 nM on PI3Kγ (setting [2]).

Turning to `C[C@@H](C1CC1)N1Cc2cc(-c3ccn4nc(N)c(C(=O)Nc5ccc(F)cc5)c4n3)cc(NS(C)(=O)=O)c2C1=O` [Example 388], the results for the concentration for half-maximal inhibition (IC50) on PI3Kγ (p120γ) and at PI3Kγ (setting [3]) were below 100 nM and 100 to 1000 nM, respectively.

For the compound `Cc1cc(-c2ccn3nc(N)c(C(=O)NCC(F)(F)F)c3n2)cc2c1C(=O)N([C@@H](C)C1CC1)C2` [Example 222], the IC50 was below 100 nM on PI3Kγ (p120γ) (Table 2, p120γ) and 100 to 1000 nM at PI3Kγ (setting [2]).

Take `C[C@@H](C1CC1)N1Cc2cc(-c3ccn4nc(N)c(C(=O)NC(C)(C)C(N)=O)c4n3)cc(NS(C)(=O)=O)c2C1=O` [Example 373]: the IC50 is below 100 nM on PI3Kγ (p120γ) and 100 to 1000 nM on PI3Kγ (setting [3]).

For `Cc1cc(-c2ccn3nc(N)c(C(=O)NC4CC(F)(F)C4)c3n2)cc2c1C(=O)N([C@@H](C)C1CC1)C2` [Example 258], the IC50 on PI3Kγ (p120γ) (Table 2, p120γ) is below 100 nM; at PI3Kγ (setting [2]), 100 to 1000 nM.

Consider `C[C@H](CO)NC(=O)c1c(N)nn2ccc(-c3cc4c(c(N5CC(F)(F)C5)c3)C(=O)N([C@@H](C)C3CC3)C4)nc12` [Example 435], for which the IC50 on PI3Kγ (p120γ) (Table 6, p120γ) was below 100 nM; on PI3Kγ (setting [4]), 100 to 1000 nM.

Turning to `Cc1cc(-c2ccn3nc(N)c(C(=O)NCC4(CO)CC4)c3n2)cc2c1C(=O)N([C@@H](C)C1CC1)C2` [Example 250], the half-inhibitory concentration (IC50) is below 100 nM on PI3Kγ (p120γ) (Table 2, p120γ) and 100 to 1000 nM at PI3Kγ (setting [2]).

As to `C[C@@H](C1CC1)N1Cc2cc(-c3ccn4nc(N)c(C(=O)N[C@H]5CC[C@H](C(=O)O)CC5)c4n3)cc(OC(F)(F)F)c2C1=O` [Example 411], the IC50 on PI3Kγ (p120γ) (Table 6, p120γ) was below 100 nM; at PI3Kγ (setting [4]) it was 100 to 1000 nM.

Consider `Cc1cc(-c2ccn3nc(N)c(C(=O)N[C@@H](CO)CC(C)C)c3n2)cc2c1C(=O)N([C@@H](C)C1CC1)C2` [Example 267], for which the IC50 at PI3Kγ (p120γ) (Table 2, p120γ) is below 100 nM; at PI3Kγ (setting [2]) it was 100 to 1000 nM.

On to `Cc1cc(-c2ccn3nc(N)c(C(=O)NC4(C)COC4)c3n2)cc2c1C(=O)N(CC(C)(C)O)C2` [Example 318], for which the half-inhibitory concentration (IC50) on PI3Kγ (p120γ) (Table 2, p120γ) was below 100 nM; at PI3Kγ (setting [2]), 100 to 1000 nM.

On to `C[C@@H](C1CC1)N1Cc2cc(-c3ccn4nc(N)c(C(=O)NC(C)(C)CO)c4n3)cc(NS(C)(=O)=O)c2C1=O` [Example 94, 2-Amino-5-{2-[(1S)-1-cyclopropylethyl]-7-methanesulfonamido-1-oxo-2,3-dihydro-1H-isoindol-5-yl}-N-(1-hydroxy-2-methylpropan-2-yl)pyrazolo[1,5-a]pyrimidine-3-carboxamide], for which the IC50 at PI3Kγ (p120γ) (Table 1, p120γ) was below 100 nM; on PI3Kγ (setting [1]) it was below 100 nM.

`Cc1cc(-c2ccn3nc(N)c(C(=O)N[C@@H]4COC[C@H]4O)c3n2)cc2c1C(=O)N([C@@H](C)C1CC1)C2` [Example 199]: the half-maximal inhibitory concentration (IC50) at PI3Kγ (p120γ) (Table 2, p120γ) is below 100 nM; on PI3Kγ (setting [2]) it was 100 to 1000 nM.

For the compound `Cc1cc(-c2ccn3nc(N)c(C(=O)NCCC#N)c3n2)cc2c1C(=O)N([C@@H](C)C1CC1)C2` [Example 260], the concentration for half-maximal inhibition (IC50) is below 100 nM at PI3Kγ (p120γ) (Table 2, p120γ) and 100 to 1000 nM on PI3Kγ (setting [2]).
